# Test results: patent US5279835A, “Binder-free orally administrable tablet containing 3-oxygermylpropionic acid” (Sanwa Kagaku Kenkyusho Co. Ltd., priority 1991, dated 1994)
# Key:
# [1] = test system: spontaneous nephritis in MRL/1 mice; assay: Prevention of spontaneous nephritis in MRL/1 mice (urinary protein, blood urea nitrogen, histopathology); format: in vivo
# Description: The effect of 3-OGP on preventing spontaneous nephritis in MRL/1 mice was investigated.
# 2-B) The preparation of Ex. 6 was orally administrated to test animals--MRL/1 mice of six-week old, 15 for each group--at daily doses of 0.1 mg/kg, 1.0 mg/kg and 10.0 mg/kg calculated as 3-OGP twice a week over 12 weeks. It is noted that this preparation was administrated to each animal in the form of a feed mix. […] In addition, the urea nitrogen content of blood on the day following the final administration were measured to make sero-biochemical as well as histopathological estimations of the action of the 3-OGP compositions on nephritis.
# It is noted that the urinary protein was determined with Protein Pretest (made by Wako Junyaku) and the urea nitrogen content of blood was estimated with Urea Nitrogen Test B: Urease/Indophenol Method (made by Wako Junyaku).
# [2] = test system: delayed type hypersensitivity reactions (DTH reactions) using sheep red blood cells (SRBCs) as antigens; assay: Delayed type hypersensitivity (DTH) reaction, pododerm swelling, in Sarcoma-180 bearing ICR mice sensitized with SRBCs; format: in vivo; settings: n = 10; for Pododerm Swelling, Average: Table 1-2 (MGWC 55.5, SMG 115.5)
# Description: The effects of 3-OGP, salts and hydroxypropylcellulose incorporated in compositions were investigated by delayed type hypersensitivity reactions (DTH reactions) using sheep red blood cells (SRBCs) as antigens.
# Sarcoma-180 cells (10^6) were intraperitoneally transplanted in test animals--ICR mice (seven-week old), 10 for each group. Then, SRBCs (10^6) were injected into each animal through the vein of the tail for sensitization.
# Four days later, SRBCs (2×10^8) were injected into the pododerm of the right hind leg to induce the DTH reaction and, 24 hours later, the thickness of the pododerm was measured. Note that the test drugs were administrated to the animals in the form of a feed mix 4 days before sensitization.
substance,measurement,setting,value
3-oxygermylpropionic acid [Example 3-OGP],increase in urea nitrogen content of blood,[1]; 10 mg/kg of 3-OGP,significantly inhibited
same,increase in urinary protein,"[1]; 10 mg/kg of 3-OGP, after 12 weeks",significantly inhibited even after 12 weeks
same,glomeruli with lesion severer than mediocre membranous glomerulonephritis,"[1]; group treated with 3-OGP, control 60%",20-36%
same,urinary protein increase,"[1]; groups treated with 3-OGP, control increased after 9 to 10 weeks",any urinary protein increase was not found
same,Urinary Protein in %,"[1]; preparation of Ex. 6, 0.1 mg/kg as 3-OGP, after 10 weeks, positive = 100 mg/dl or more (control 52.3)",28.7%
same,Urinary Protein in %,"[1]; preparation of Ex. 6, 0.1 mg/kg as 3-OGP, after 11 weeks (control 66.6)",47.1%
same,Urinary Protein in %,"[1]; preparation of Ex. 6, 0.1 mg/kg as 3-OGP, after 12 weeks (control 91.3)",65.6%
same,Urinary Protein in %,"[1]; preparation of Ex. 6, 1 mg/kg as 3-OGP, after 10 weeks (control 52.3)",28.1%
same,Urinary Protein in %,"[1]; preparation of Ex. 6, 1 mg/kg as 3-OGP, after 11 weeks (control 66.6)",23.8%
same,Urinary Protein in %,"[1]; preparation of Ex. 6, 1 mg/kg as 3-OGP, after 12 weeks (control 91.3)",51.0%
same,Urinary Protein in %,"[1]; preparation of Ex. 6, 10 mg/kg as 3-OGP, after 10 weeks (control 52.3)",15.8%
same,Urinary Protein in %,"[1]; preparation of Ex. 6, 10 mg/kg as 3-OGP, after 11 weeks (control 66.6)",27.5%
same,Urinary Protein in %,"[1]; preparation of Ex. 6, 10 mg/kg as 3-OGP, after 12 weeks (control 91.3)",53.3%
same,"Pododerm Swelling, Average Standard Deviation","[2]; Table 1-1, first series (MGWC 47.1, SMG 115.4), 0.1 mg/kg in feed mix",55.1 3.3 × 0.01 mm
same,"Pododerm Swelling, Average Standard Deviation","[2]; Table 1-1, first series (MGWC 47.1, SMG 115.4), 1 mg/kg in feed mix",73.8 5.7 × 0.01 mm
same,"Pododerm Swelling, Average Standard Deviation","[2]; Table 1-1, first series (MGWC 47.1, SMG 115.4), 10 mg/kg in feed mix",70.2 5.1 × 0.01 mm
same,"Pododerm Swelling, Average Standard Deviation","[2]; Table 1-1, second series (MGWC 48.9, SMG 117.4), 0.1 mg/kg in feed mix",64.3 6.4 × 0.01 mm
same,"Pododerm Swelling, Average Standard Deviation","[2]; Table 1-1, second series (MGWC 48.9, SMG 117.4), 1 mg/kg in feed mix",72.1 5.5 × 0.01 mm
same,"Pododerm Swelling, Average Standard Deviation","[2]; Table 1-1, second series (MGWC 48.9, SMG 117.4), 10 mg/kg in feed mix",66.3 3.1 × 0.01 mm
same,"Pododerm Swelling, Average",[2]; 0.1 mg/kg in feed mix,63.5 × 0.01 mm
same,"Pododerm Swelling, Average",[2]; 1 mg/kg in feed mix,77.0 × 0.01 mm
same,"Pododerm Swelling, Average",[2]; 10 mg/kg in feed mix,73.2 × 0.01 mm
